# Article PMC10600239, “Selective MCL-1 inhibitor ABBV-467 is efficacious in tumor models but is associated with cardiac troponin increases in patients” (Communications Medicine, 2023)
# “And” between values parts separate entries of the source, which are not always exact repeats. Identical values can stand only once.
# Tested on: AMO-1 xenografts
# Assay: AMO-1 xenograft efficacy (tumor volume, body weight)
# Assay type: in vivo, mouse
# Parameters: key to Anti-tumor Activity vs. AMO-1 (DSMZ), Median / Anti-tumor Activity vs. AMO-1 (DSMZ), individual animal / Anti-tumor Activity vs. AMO-1 (DSMZ), Mean: tumor volume in mm^3 (length × width^2/2)
# Experimental: All animal studies were conducted in accordance with the guidelines approved by the Institutional Animal Care and Use Committees of AbbVie. The research protocol was approved by In Vivo Pharmacology at AbbVie prior to study initiation but was not publicly registered or disclosed. Female C.B-17 SCID-beige mice (AMO-1, OPM-2, NCI-H929, and OCI-AML2 xenografts) and female NSG mice (MV4-11-Red.Fluc systemic) were purchased from Charles River Laboratories (Wilmington, MA). Animals were housed in a light cycle-controlled room with HEPA filtration at 22 °C. Animals had nesting and climbing cage topper as the primary environmental enrichment. Animals were inoculated subcutaneously in the right flank with 5 × 10^6 (AMO-1, OPM-2, NCI-H929, and OCI-AML2) or intravenous (IV) with 5 × 10^6 (MV4-11-Red.Fluc). The inoculation volume (0.2 mL) comprised a 50:50 mixture of cells in growth media and Matrigel (BD Biosciences) for subcutaneous injections and 100% phosphate-buffered saline for IV administration. All cell lines used in this publication were authenticated using IDEXX for STR profiling as well as their IMPACT and human IMPACT panels for pathogen screening. Electronic calipers were used to measure the length and width of each tumor 2 to 3 times per week. Tumor volume was estimated by applying the following equation: volume = length × width^2/2. All groups remained blinded during measurements and dosing; only veterinary staff were aware of group identity. When tumors reached approximately 200 mm^3, mice were randomized by match and distributed into treatment and control groups. All xenograft trials were conducted using 5 to 10 mice per group, and all mice were ear tagged and monitored individually throughout the studies. […] Tumor burden in the systemic MV4-11-Red.Fluc experiment was measured using an IVIS® spectrum from PerkinElmer by taking the total photon flux of the entire dorsal side of an individual mouse. […] A background control mouse that was tumor naive but received D-Luciferin was placed in the upper left corner of each image. The total flux from this animal was subtracted from the total flux of each animal present in the image.
# For in vivo studies, maximal tumor growth inhibition (TGI) was calculated as the greatest treatment response using the following equation: Maximal TGI = (1 − mean tumor volume of the treated group/mean tumor volume of the vehicle control group) × 100. The tumor growth delay (TGD) percentage was determined as the percentage increase of the median time period for the treatment group to reach an arbitrary tumor volume of 1000 mm^3 relative to the vehicle control group. […] A power analysis was conducted using historical data to determine the number of animals required to yield significance of 0.05 at a 30% difference. […] Data from experiments in vivo were analyzed using the student’s t-test for TGI values and the Mann–Whitney U test for TGD using Excel and GraphPad Prism. Fisher’s exact test was used to probe significance of differences in response frequency.
# [1] = 6.25 mg/kg IV QDx1, Day 13 (day before dosing begins)
# [2] = 6.25 mg/kg Q7Dx2 IV, SCID-beige female mice, Day 21
# [3] = 6.25 mg/kg Q7Dx2 IV, SCID-beige female mice, Day 24
compound,measurement,setting,value
Cc1c(Cl)c2c(Cl)c(C)c1-c1c(-c3ccc(F)cc3)sc3ncnc(c13)O[C@@H](C(=O)O)Cc1cc(ccc1OCc1ccnc(-c3ccc(OC[C@H]4COCCO4)cc3)n1)OC[C@@H](CN1CCN(C)CC1)O2 [Compound A-1747745.0],"Anti-tumor Activity vs. AMO-1 (DSMZ), Median","6.25 mg/kg IV QDx1, day 23",225.89
same,"Group Mean, Body Weight","6.25 mg/kg IV QDx1, day 23",22.00 g
same,"Anti-tumor Activity vs. AMO-1 (DSMZ), Mean","6.25 mg/kg IV QDx1, day 26",454.97
same,"Anti-tumor Activity vs. AMO-1 (DSMZ), Median","6.25 mg/kg IV QDx1, day 26",392.97
same,"Anti-tumor Activity vs. AMO-1 (DSMZ), Mean","6.25 mg/kg IV QDx1, day 28",690.68
same,"Anti-tumor Activity vs. AMO-1 (DSMZ), Median","6.25 mg/kg IV QDx1, day 28",578.26
same,"Group Mean, Body Weight","6.25 mg/kg IV QDx1, day 28",22.25 g
same,"Anti-tumor Activity vs. AMO-1 (DSMZ), Mean","6.25 mg/kg IV QDx1, day 30",882.20
same,"Anti-tumor Activity vs. AMO-1 (DSMZ), Median","6.25 mg/kg IV QDx1, day 30",791.67
same,"Anti-tumor Activity vs. AMO-1 (DSMZ), Mean","6.25 mg/kg IV QDx1, day 34",1592.98
same,"Anti-tumor Activity vs. AMO-1 (DSMZ), Median","6.25 mg/kg IV QDx1, day 34",1465.20
same,"Anti-tumor Activity vs. AMO-1 (DSMZ), Mean","6.25 mg/kg IV QDx1, day 36",1754.60
same,"Anti-tumor Activity vs. AMO-1 (DSMZ), Median","6.25 mg/kg IV QDx1, day 36",1695.89
same,"Xenograft AMO-1 (DSMZ) tumor volume Day 13, Mean",[1],216.25 mm³
same,"Xenograft AMO-1 (DSMZ) tumor volume Day 13, Median",[1],216.39 mm³
same,% T/C (mean),[1],100.07%
same,% T/C (median),[1],100.10%
same,"Xenograft AMO-1 (DSMZ) (mm³) Day 13, individual animals","6.25 mg/kg IV QDx1, SCID-beige female mice, Day 13 (randomization, day before dosing begins)",219 mm³ and 211 mm³ and 216 mm³ and 221 mm³ and 217 mm³ and 214 mm³ and 224 mm³ and 208 mm³
same,Mortality Observation Day 32,"6.25 mg/kg Q7Dx2 IV, AMO-1 (DSMZ) xenograft, SCID-beige female mice, per animal",EUTV (6×) and GRPX
same,% T/C (mean),"6.25 mg/kg Q7Dx2 IV, Day 13",101.00%
same,% T/C (median),"6.25 mg/kg Q7Dx2 IV, Day 13",98.08%
same,% T/C (mean),"6.25 mg/kg Q7Dx2 IV, Day 19",30.07%
same,% T/C (median),"6.25 mg/kg Q7Dx2 IV, Day 19",31.46%
same,% T/C (mean),"6.25 mg/kg Q7Dx2 IV, Day 21",29.54%
same,% T/C (median),"6.25 mg/kg Q7Dx2 IV, Day 21",27.04%
same,% T/C (mean),"6.25 mg/kg Q7Dx2 IV, Day 24",22.09%
same,% T/C (median),"6.25 mg/kg Q7Dx2 IV, Day 24",20.32%
same,% T/C (mean),"6.25 mg/kg Q7Dx2 IV, Day 26",21.67%
same,% T/C (median),"6.25 mg/kg Q7Dx2 IV, Day 26",14.15%
same,% T/C (mean),"6.25 mg/kg Q7Dx2 IV, Day 28",23.23%
same,% T/C (median),"6.25 mg/kg Q7Dx2 IV, Day 28",13.94%
same,Xenograft AMO-1 (DSMZ) Day 19 Mean,"6.25 mg/kg Q7Dx2 IV, SCID-beige female mice, Day 19, group mean tumor volume",118.80 mm³
same,Xenograft AMO-1 (DSMZ) Day 19 Median,"6.25 mg/kg Q7Dx2 IV, SCID-beige female mice, Day 19, group median tumor volume",115.27 mm³
same,"Xenograft AMO-1 (DSMZ) (mm³) Day 19, individual animals","6.25 mg/kg Q7Dx2 IV, SCID-beige female mice, Day 19, individual tumor volumes",119 mm³ and 199 mm³ and 123 mm³ and 80 mm³ and 92 mm³ and 115 mm³ and 104 mm³
same,"Xenograft AMO-1 (DSMZ) Day 21, Mean",[2],190.88 mm³
same,"Xenograft AMO-1 (DSMZ) Day 21, Median",[2],163.99 mm³
same,"Xenograft AMO-1 (DSMZ) tumor volume Day 21, individual animals",[2],209 mm³ and 370 mm³ and 179 mm³ and 144 mm³ and 116 mm³ and 164 mm³ and 155 mm³
same,"Xenograft AMO-1 (DSMZ) (mm³) Day 24, individual animals",[3],184 mm³ and 451 mm³ and 200 mm³ and 190 mm³ and 174 mm³ and 138 mm³ and 133 mm³
same,"Xenograft AMO-1 (DSMZ) tumor volume Day 24, Mean",[3],210.06 mm³
